One data set deals with VEGF permeability model. In words: VEGF permeability model, intravitreal injection. As to conditions: dosed by intravitreal injection. In kind it is in vivo.
For the next data set, the target named is VEGFR2 (KDR) (Homo sapiens (Human), UniProt P35968). In words: VEGFR2 Kinase Assay. Format: biochemical. As to conditions: purified cytoplasmic domain KDR protein, 2.7 μM ATP; read-out: VEGFR2 Enzyme Assay (IC50 nM). How it is done:
VEGFR2 Kinase Assay Biochemical KDR kinase assays were performed in 96 well microtiter plates that were coated overnight with 75 μg/well of poly-Glu-[…]:1) in 10 mM Phosphate Buffered Saline (PBS), pH 7.4. […] Reactions were carried out in 100 μL reaction volumes containing 2.7 μM ATP in kinase buffer (50 mM Hepes buffer pH 7.4, 20 mM MgCl2, 0.1 mM MnCl2 and 0.2 mM Na3VO4). […] Reactions were initiated by the addition 20 ul per well of kinase buffer containing 200-300 ng purified cytoplasmic domain KDR protein (BPS Bioscience, San Diego, Calif.). Following a 15 minute incubation at 30° C., the reactions were washed 2 mls per well PBS-T. 100 μl of a monoclonal anti-phosphotyrosine antibody-peroxidase conjugate diluted 1:10,000 in PBS-T was added to the wells for 30 minutes. Following a 2 mls per well wash with PBS-Tween-20, 100 μl of 0-Phenylenediamine Dihydrochloride in phosphate-citrate buffer, containing urea hydrogen peroxide, was added to the wells for 7-10 minutes as a colorimetric substrate for the peroxidase. […] IC50 values for compound inhibition were calculated directly from graphs of optical density (arbitrary units) versus compound concentration following subtraction of blank values.

Data set [1] has as its target T1, PDGFRβ (Homo sapiens (Human), UniProt P09619). Description: PDGFRβ Kinase Assay. To be noted: purified cytoplasmic domain PDGFR-b protein, 36 μM ATP; read-out: PDGFRβ Enzyme Assay (IC50 nM). Format: biochemical. On the procedure:
Biochemical PDGFRβ kinase assays were performed in 96 well microtiter plates that were coated overnight with 75 μg of poly-Glu-Tyr (4:1) in 10 mM Phosphate Buffered Saline (PBS), pH 7.4.
PBS-T prior to starting the reaction. Reactions were carried out in 100 μL reaction volumes containing 36 μM ATP in kinase buffer (50 mM Hepes buffer pH 7.4, 20 mM MgCl2, 0.1 mM MnCl2 and 0.2 mM Na3VO4). […] Reactions were initiated by the addition 20 ul per well of kinase buffer containing 200-300 ng purified cytoplasmic domain PDGFR-b protein (Millipore). Following a 60 minute incubation at 30° C., the reactions were washed 2 mls per well PBS-T. 100 μl of a monoclonal anti-phosphotyrosine antibody-peroxidase conjugate diluted 1:10,000 in PBS-T was added to the wells for 30 minutes. Following a 2 mls per well wash with PBS-Tween-20, 100 μl of O-Phenylenediamine Dihydrochloride in phosphate-citrate buffer, containing urea hydrogen peroxide, was added to the wells for 7-10 minutes as a colorimetric substrate for the peroxidase. […] IC50 values for compound inhibition were calculated directly from graphs of optical density (arbitrary units) versus compound concentration following subtraction of blank values.
Target sequence in this assay (P09619 554-1106): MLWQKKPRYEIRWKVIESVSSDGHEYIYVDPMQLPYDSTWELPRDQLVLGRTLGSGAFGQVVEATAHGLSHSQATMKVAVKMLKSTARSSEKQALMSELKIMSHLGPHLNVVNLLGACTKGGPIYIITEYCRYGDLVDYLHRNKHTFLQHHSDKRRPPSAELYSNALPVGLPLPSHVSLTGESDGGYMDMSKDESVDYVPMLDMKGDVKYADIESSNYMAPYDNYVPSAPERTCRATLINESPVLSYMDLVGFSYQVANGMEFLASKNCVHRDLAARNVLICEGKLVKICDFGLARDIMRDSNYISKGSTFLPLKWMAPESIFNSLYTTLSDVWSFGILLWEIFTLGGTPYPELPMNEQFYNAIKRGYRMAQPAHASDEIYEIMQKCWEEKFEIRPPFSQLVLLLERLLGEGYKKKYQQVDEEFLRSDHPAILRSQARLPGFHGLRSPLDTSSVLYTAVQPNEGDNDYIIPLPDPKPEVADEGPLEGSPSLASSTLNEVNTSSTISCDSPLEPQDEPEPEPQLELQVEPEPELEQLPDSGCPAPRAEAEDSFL

The target of the next data set is VEGFR2 (Homo sapiens (Human), UniProt P35968). Description: VEGFR2 Cellular Assay (VEGF induced intracellular calcium, FLIPR, HUVEC). Format: cell-based. As to conditions: VEGF165 stimulation (10 ng/mL). On the procedure: (§1) VEGFR2 Cellular Assay Automated FLIPR (Fluorometric Imaging Plate Reader) technology was used to screen for inhibitors of VEGF induced increases in intracellular calcium levels in fluorescent dye loaded endothelial cells. HUVEC (human umbilical vein endothelial cells) (Clonetics) were seeded in 384-well fibronectin coated black-walled plates overnight @ 37° C./5% CO2. Cells were loaded with calcium indicator Fluo-4 for 45 minutes at 37° C. Cells were washed 2 times (Elx405, Biotek Instruments) to remove extracellular dye. For screening, cells were pre-incubated with test agents for 30 minutes, at a single concentration (10 uM) or at concentrations ranging from 0.0001 to 10.0 uM followed by VEGF165 stimulation (10 ng/mL). Changes in fluorescence at 516 nm were measured simultaneously in all 384 wells using a cooled CCD camera. Data were generated by determining max-min fluorescence levels for unstimulated, stimulated, and drug treated samples. IC50 values for test compounds were calculated from % inhibition of VEGF stimulated responses in the absence of inhibitor.
VEGFR2, sequence (P35968 20-1356): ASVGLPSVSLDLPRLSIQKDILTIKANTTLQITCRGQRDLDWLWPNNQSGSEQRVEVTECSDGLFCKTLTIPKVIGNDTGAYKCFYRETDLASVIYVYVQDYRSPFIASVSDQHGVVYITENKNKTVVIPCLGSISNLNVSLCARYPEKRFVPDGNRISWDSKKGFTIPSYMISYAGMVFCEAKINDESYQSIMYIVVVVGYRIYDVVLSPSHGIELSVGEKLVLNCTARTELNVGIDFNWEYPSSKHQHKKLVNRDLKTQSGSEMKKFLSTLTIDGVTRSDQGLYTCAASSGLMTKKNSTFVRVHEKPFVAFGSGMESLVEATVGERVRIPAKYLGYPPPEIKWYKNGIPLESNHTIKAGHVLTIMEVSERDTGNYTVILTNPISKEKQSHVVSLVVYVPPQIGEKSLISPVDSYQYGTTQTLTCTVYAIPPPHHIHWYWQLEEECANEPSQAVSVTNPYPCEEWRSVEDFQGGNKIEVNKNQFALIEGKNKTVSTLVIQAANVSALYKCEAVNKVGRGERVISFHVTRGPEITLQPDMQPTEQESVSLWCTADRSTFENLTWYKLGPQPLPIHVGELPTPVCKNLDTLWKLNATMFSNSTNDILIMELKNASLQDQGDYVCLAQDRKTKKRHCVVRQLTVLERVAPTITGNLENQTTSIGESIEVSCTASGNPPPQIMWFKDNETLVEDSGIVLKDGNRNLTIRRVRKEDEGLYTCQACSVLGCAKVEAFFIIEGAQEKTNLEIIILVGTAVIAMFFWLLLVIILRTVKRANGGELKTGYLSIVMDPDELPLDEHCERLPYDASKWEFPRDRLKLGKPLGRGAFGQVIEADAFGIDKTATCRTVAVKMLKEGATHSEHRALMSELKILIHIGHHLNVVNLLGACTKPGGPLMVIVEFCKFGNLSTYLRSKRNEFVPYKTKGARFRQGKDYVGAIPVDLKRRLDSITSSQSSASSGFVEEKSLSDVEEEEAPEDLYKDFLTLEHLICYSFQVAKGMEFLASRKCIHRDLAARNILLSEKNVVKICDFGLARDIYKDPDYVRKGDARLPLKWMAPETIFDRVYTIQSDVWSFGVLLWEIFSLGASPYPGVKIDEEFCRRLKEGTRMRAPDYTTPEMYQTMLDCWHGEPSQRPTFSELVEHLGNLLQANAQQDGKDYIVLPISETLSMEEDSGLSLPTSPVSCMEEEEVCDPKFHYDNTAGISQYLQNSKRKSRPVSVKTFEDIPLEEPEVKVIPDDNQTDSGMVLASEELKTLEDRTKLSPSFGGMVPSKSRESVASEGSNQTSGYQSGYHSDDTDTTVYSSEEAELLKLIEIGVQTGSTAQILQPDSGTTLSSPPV

For data set [2], the target named is T1, PDGFRβ. In words: PDGFRβ Cellular Assay (PDGF-induced intracellular calcium, FLIPR, NHDF-Ad). Format: cell-based. As to conditions: PDGF-BB stimulation (30 ng/mL). On the procedure:
as §1, with “Automated” for “VEGFR2 Cellular Assay Automated”, “of PDGF-induced” for “of VEGF induced”, “[…]. NHDF-Ad (Normal Human Dermal Fibroblasts, Adult; Lonza)” for “cells. HUVEC (human umbilical vein endothelial cells) (Clonetics)”, “by PDGF-BB” for “by VEGF165”, “stimulation (30” for “stimulation (10”, “of PDGF-BB” for “of VEGF”
Target sequence in this assay (P09619 33-1106): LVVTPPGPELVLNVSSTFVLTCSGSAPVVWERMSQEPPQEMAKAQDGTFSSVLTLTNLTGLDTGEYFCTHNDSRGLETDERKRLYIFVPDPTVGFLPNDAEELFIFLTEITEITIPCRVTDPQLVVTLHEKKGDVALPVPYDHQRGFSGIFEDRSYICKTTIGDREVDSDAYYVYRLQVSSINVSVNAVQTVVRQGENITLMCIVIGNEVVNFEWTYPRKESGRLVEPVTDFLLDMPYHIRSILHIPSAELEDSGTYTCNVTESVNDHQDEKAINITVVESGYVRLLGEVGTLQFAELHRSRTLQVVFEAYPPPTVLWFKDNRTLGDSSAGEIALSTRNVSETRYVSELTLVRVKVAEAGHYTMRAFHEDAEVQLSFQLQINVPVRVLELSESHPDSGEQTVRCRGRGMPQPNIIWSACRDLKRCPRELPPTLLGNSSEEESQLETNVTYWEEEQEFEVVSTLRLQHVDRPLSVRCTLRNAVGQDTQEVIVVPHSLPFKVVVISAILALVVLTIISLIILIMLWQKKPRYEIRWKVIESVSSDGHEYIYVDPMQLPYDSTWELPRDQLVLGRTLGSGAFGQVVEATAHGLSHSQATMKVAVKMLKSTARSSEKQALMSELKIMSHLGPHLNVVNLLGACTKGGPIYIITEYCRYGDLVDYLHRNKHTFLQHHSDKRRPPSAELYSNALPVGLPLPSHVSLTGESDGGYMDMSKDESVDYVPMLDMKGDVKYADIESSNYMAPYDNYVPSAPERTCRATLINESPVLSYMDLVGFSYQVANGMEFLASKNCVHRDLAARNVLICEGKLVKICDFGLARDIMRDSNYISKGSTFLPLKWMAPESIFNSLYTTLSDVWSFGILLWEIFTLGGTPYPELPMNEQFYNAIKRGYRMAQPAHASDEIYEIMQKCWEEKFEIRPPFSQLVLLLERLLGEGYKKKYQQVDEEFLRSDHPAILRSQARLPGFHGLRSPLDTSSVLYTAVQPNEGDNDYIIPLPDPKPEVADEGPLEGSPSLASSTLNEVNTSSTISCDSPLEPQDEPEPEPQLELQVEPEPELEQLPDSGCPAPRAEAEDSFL

By IC50 is commonly meant the concentration at which inhibition is half-maximal.

Molecules are shown by their SMILES.

VEGFR2 (KDR), sequence (P35968 786-1356): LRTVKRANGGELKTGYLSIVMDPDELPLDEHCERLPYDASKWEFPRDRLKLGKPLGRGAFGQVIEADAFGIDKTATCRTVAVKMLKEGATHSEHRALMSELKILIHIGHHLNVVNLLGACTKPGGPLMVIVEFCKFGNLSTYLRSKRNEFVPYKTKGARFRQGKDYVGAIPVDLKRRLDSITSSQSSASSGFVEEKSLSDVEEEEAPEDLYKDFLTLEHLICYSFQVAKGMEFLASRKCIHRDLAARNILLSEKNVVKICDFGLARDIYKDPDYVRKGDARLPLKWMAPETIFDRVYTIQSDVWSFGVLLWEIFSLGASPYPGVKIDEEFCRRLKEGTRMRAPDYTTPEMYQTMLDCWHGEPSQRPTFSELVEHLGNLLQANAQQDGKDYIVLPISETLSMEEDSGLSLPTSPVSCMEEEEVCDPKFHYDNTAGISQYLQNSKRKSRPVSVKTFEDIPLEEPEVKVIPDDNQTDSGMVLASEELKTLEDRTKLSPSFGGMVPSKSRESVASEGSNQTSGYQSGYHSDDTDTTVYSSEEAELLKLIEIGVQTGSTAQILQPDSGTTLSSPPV

Regarding `COC(=O)CCCCS(C)(=O)=NC(=O)c1cnc(N)c(C#Cc2cccc(NC(=O)c3occc3C)c2)c1` (centres unmarked) [Example 23, Methyl 5-(N-{[6-amino-5-({3-[(3-methyl-2-furoyl)amino]phenyl}ethynyl)pyridin-3-yl]carbonyl}-S-methylsulfonimidoyl)pentanoate], in the data set with VEGF permeability model, the “in vivo efficacy in the VEGF permeability model” value (shortened to “in vivo efficacy”) is reported as “good in vivo efficacy”. In addition, the IC50 at VEGFR2 (KDR) stood at 7 nM; on PDGFRβ [1] it was 54 nM; at VEGFR2, 1 nM; at PDGFRβ [2], 31 nM.

Turning to `COC(=O)CCCCS(C)(=O)=NC(=O)c1cnc(N)c(C#Cc2cccc(NC(=O)c3cccc(C)c3)c2)c1` (centres unmarked) [Example 26, Methyl 5-(N-{[6-amino-5-({3-[(3-methylbenzoyl)amino]phenyl}ethynyl)pyridin-3-yl]carbonyl}-S-methylsulfonimidoyl)pentanoate], the “in vivo efficacy” value in the data set on VEGF permeability model is “good in vivo efficacy”. The IC50 at VEGFR2 (KDR) was determined as 4 nM; on PDGFRβ [1], 11 nM; at VEGFR2 it was 1 nM; at PDGFRβ [2], 10 nM.

As to `COC(=O)CCCCS(C)(=O)=NC(=O)c1cnc(N)c(C#Cc2cccc(NC(=O)c3ccc(Cl)c(C(F)(F)F)c3)c2)c1` (centres unmarked) [Example 29, Methyl 5-[N-({6-amino-5-[(3-{[4-chloro-3-(trifluoromethyl)benzoyl]amino}phenyl)ethynyl]pyridin-3-yl}carbonyl)-S-methylsulfonimidoyl]pentanoate], the IC50 at VEGFR2 (KDR) was determined as 4 nM; on PDGFRβ [1], 25 nM; on VEGFR2, 6 nM; at PDGFRβ [2], 15 nM.

In the case of `COC(=O)CCCCS(C)(=O)=NC(=O)c1cnc(N)c(C#Cc2cccc(NC(=O)c3cccc(OC)c3)c2)c1` (centres unmarked) [Example 30, Methyl 5-(N-{[6-amino-5-({3-[(3-methoxybenzoyl)amino]phenyl}ethynyl)pyridin-3-yl]carbonyl}-S-methylsulfonimidoyl)pentanoate], in the data set with VEGF permeability model, the “in vivo efficacy” value is on record as “good in vivo efficacy”. The IC50 on VEGFR2 (KDR) is 5 nM; on PDGFRβ [1], 14 nM; at VEGFR2 it was 1 nM; at PDGFRβ [2], 9 nM.

On to `COC(=O)CCCCS(C)(=O)=NC(=O)c1cnc(N)c(C#Cc2cccc(NC(=O)c3ccc(OC)c(OC)c3)c2)c1` (centres unmarked) [Example 31, Methyl 5-(N-{[6-amino-5-({3-[(3,4-dimethoxybenzoyl)amino]phenyl}ethynyl)pyridin-3-yl]carbonyl}-S-methylsulfonimidoyl)pentanoate], for which the IC50 on VEGFR2 (KDR) stood at 15 nM; on PDGFRβ [1], 38 nM; at VEGFR2 it was 4 nM; at PDGFRβ [2], 13 nM.

Take `COC(=O)CCCC[S@](C)(=O)=NC(=O)c1cnc(N)c(C#Cc2cccc(NC(=O)c3occc3C)c2)c1` [Example 32, (S)-methyl 5-(N-{[6-amino-5-({3-[(3-methyl-2-furoyl)amino]phenyl}ethynyl)pyridin-3-yl]carbonyl}-S-methylsulfonimidoyl)pentanoate]: the “in vivo efficacy” value in the data set on VEGF permeability model is recorded as “good in vivo efficacy”. Also, the IC50 amounted to 3 nM at VEGFR2 (KDR), 31 nM on PDGFRβ [1], 1 nM at VEGFR2 and 60 nM at PDGFRβ [2].

On to `COC(=O)CCCC[S@@](C)(=O)=NC(=O)c1cnc(N)c(C#Cc2cccc(NC(=O)c3occc3C)c2)c1` [Example 33, (R)-Methyl 5-(N-{[6-amino-5-({3-[(3-methyl-2-furoyl)amino]phenyl}ethynyl)pyridin-3-yl]carbonyl}-S-methylsulfonimidoyl)pentanoate], for which the “in vivo efficacy” value in the data set with VEGF permeability model is listed as “good in vivo efficacy”. Further, the IC50 on VEGFR2 (KDR) was found to be 6 nM; at PDGFRβ [1], 27 nM; at VEGFR2, 1 nM; at PDGFRβ [2], 86 nM.

For `COC(=O)CCCCS(C)(=O)=NC(=O)c1cnc(N)c(C#Cc2cccc(C(=O)Nc3cccc(C)c3)c2)c1` (centres unmarked) [Example 34, Methyl 5-[N-({6-amino-5-[(3-{[(3-methylphenyl)amino]carbonyl}phenyl)ethynyl]pyridin-3-yl}carbonyl)-S-methylsulfonimidoyl]pentanoate], the “in vivo efficacy” value in the data set with VEGF permeability model is recorded as “good in vivo efficacy”. The IC50 at VEGFR2 (KDR) came to 7 nM; at PDGFRβ [1], 15 nM; on VEGFR2 it was 2 nM; at PDGFRβ [2], 13 nM.

The values are drawn from patent US9266869B2, “Substituted dialkyl(oxido)-lambda4-sulfanylidene nicotinamide derivatives as kinase inhibitors” (Allergan, Inc., priority 2013, dated 2016).
